Data reported in PubChem BioAssay (NCI).
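Compound exposure: 48 hours, 5 concentrations, 96-well plates. TGI is the concentration that stops growth completely.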

Key:
Test in all cases: DTP human tumour cell line panel, 48 h
[1] = test system: DLD-1 colon
[2] = test system: DMS 114 small cell lung
[3] = test system: KM20L2 colon
[4] = test system: LXFL 529 NSCLC
[5] = test system: M19-MEL melanoma
[6] = test system: RXF-631 renal
[7] = test system: SNB-78 CNS
[8] = test system: XF 498 CNS
[9] = test system: HOP-18 NSCLC

Question: Which results are given for Cc1nc2nn(Cc3ccccc3)cc2c(=O)o1?
Answer: TGI [1]: > 100 µM; TGI [2]: > 100 µM; TGI [3]: > 100 µM; TGI [4]: > 100 µM; TGI [5]: > 100 µM; TGI [6]: > 100 µM; TGI [7]: > 100 µM; TGI [8]: > 100 µM

Question: For c1ccc(CCCC2Sc3cccc4cccc(c34)S2)cc1, which TGI [1] is on record?
Answer: The TGI was greater than 100 µM.

Question: And the TGI [2]?
Answer: Its TGI is greater than 100 µM.

Question: And the TGI [3]?
Answer: Its TGI is greater than 100 µM.

Question: And the TGI [4]?
Answer: Its TGI is greater than 100 µM.

Question: What about the TGI [5] of the same compound?
Answer: Its TGI is greater than 100 µM.

Question: And the TGI [7]?
Answer: The TGI was greater than 100 µM.

Question: And the TGI [8]?
Answer: Its TGI is greater than 100 µM.

Question: Which TGI [1] does the source give for Nc1ccc2ncc(Nc3ccc(F)cc3)nc2c1 here?
Answer: Its TGI is greater than 100 µM.

Question: And the TGI [2]?
Answer: The TGI was greater than 100 µM.

Question: What about the TGI [5] of the same compound?
Answer: The TGI was greater than 100 µM.

Question: What about the TGI [7] of the same compound?
Answer: The TGI was greater than 100 µM.

Question: And the TGI [8]?
Answer: Its TGI is greater than 100 µM.

Question: What does the source list for Cc1ccc(C(=O)OC(C)C)cc1N=NN(C)C?
Answer: TGI [1]: > 100 µM; TGI [3]: > 100 µM; TGI [4]: > 100 µM; TGI [5]: > 100 µM; TGI [7]: > 100 µM

Question: How did the TGI [1] turn out when CN/C=C(/c1ccc(OC)cc1)C(O)c1ccc(OC)c(OC)c1 (stereo unspecified) was run?
Answer: Its TGI is greater than 100 µM.

Question: What about the TGI [2] of the same compound?
Answer: The TGI was greater than 100 µM.

Question: What about the TGI [9] of the same compound?
Answer: The TGI was greater than 100 µM.

Question: And the TGI [3]?
Answer: The TGI was greater than 100 µM.

Question: What about the TGI [5] of the same compound?
Answer: The TGI was greater than 100 µM.

Question: And the TGI [6]?
Answer: The TGI was greater than 100 µM.

Question: What about the TGI [8] of the same compound?
Answer: Its TGI is greater than 100 µM.

Question: Which results are given for O=C(CSc1nnc(Cc2ccccc2)o1)Nc1ccccc1Cl?
Answer: TGI [1]: > 100 µM; TGI [2]: > 100 µM; TGI [9]: > 100 µM; TGI [3]: > 100 µM; TGI [4]: > 100 µM; TGI [5]: > 100 µM; TGI [7]: > 100 µM

Question: What does the source list for COc1cc2c(cc1O)[C@H](C)C(c1ccccc1OC)O2 (stereo partly specified)?
Answer: TGI [1]: > 100 µM; TGI [2]: 11 µM; TGI [9]: > 100 µM; TGI [3]: 24.4 µM; TGI [4]: 27.1 µM; TGI [5]: > 100 µM; TGI [7]: > 100 µM; TGI [8]: 24 µM

Question: COc1ccc([C@@H]2CC(=O)NCCCNCCCCNCCCN2)cc1 was tested. Which TGI [1] did it give?
Answer: Its TGI is greater than 100 µM.

Question: And the TGI [2]?
Answer: The TGI was greater than 100 µM.

Question: And the TGI [9]?
Answer: The TGI was greater than 100 µM.

Question: And the TGI [3]?
Answer: The TGI was greater than 100 µM.

Question: And the TGI [4]?
Answer: The TGI was greater than 100 µM.

Question: And the TGI [5]?
Answer: The TGI was greater than 100 µM.

Question: And the TGI [7]?
Answer: Its TGI is greater than 100 µM.

Question: And the TGI [8]?
Answer: Its TGI is greater than 100 µM.

Question: Which TGI [1] does the source give for CC(C)c1cccc(C(C)C)c1NC(=O)C(=O)CC(=O)CC(c1ccccc1)c1c(O)c2ccccc2oc1=O (stereo unspecified) here?
Answer: The TGI was greater than 100 µM.

Question: And the TGI [2]?
Answer: The TGI was greater than 100 µM.

Question: And the TGI [3]?
Answer: The TGI was greater than 100 µM.

Question: What does the source list for Nc1ccc(C(=O)NN2C(=O)C(Cl)C2c2cc(Br)cc(Br)c2O)cc1 (stereo unspecified)?
Answer: TGI [1]: > 100 µM; TGI [2]: 25.4 µM; TGI [9]: 38.2 µM; TGI [3]: > 100 µM; TGI [4]: > 100 µM; TGI [5]: 48.3 µM; TGI [7]: > 100 µM; TGI [8]: > 100 µM

Question: With Cc1ccc(/C=C/C(=O)C(C)C)cc1 as the compound, how does the TGI [1] read?
Answer: The TGI was greater than 100 µM.

Question: What about the TGI [2] of the same compound?
Answer: The TGI was greater than 100 µM.

Question: And the TGI [3]?
Answer: Its TGI is greater than 100 µM.

Question: What about the TGI [4] of the same compound?
Answer: The TGI was greater than 100 µM.

Question: And the TGI [5]?
Answer: Its TGI is greater than 100 µM.

Question: What about the TGI [7] of the same compound?
Answer: The TGI was greater than 100 µM.

Question: With Cc1cc(Cl)ccc1NC(=O)C(=O)Cc1ccc([N+](=O)[O-])c([N+](=O)[O-])c1CC(=O)C(=O)Nc1ccc(Cl)cc1C as the compound, how does the TGI [2] read?
Answer: The TGI was greater than 100 µM.

Question: And the TGI [9]?
Answer: Its TGI is greater than 100 µM.

Question: What about the TGI [3] of the same compound?
Answer: Its TGI is greater than 100 µM.

Question: And the TGI [4]?
Answer: Its TGI is greater than 100 µM.

Question: And the TGI [5]?
Answer: Its TGI is greater than 100 µM.

Question: What about the TGI [7] of the same compound?
Answer: The TGI was greater than 100 µM.

Question: And the TGI [8]?
Answer: The TGI was greater than 100 µM.

Question: Which TGI [1] does the source give for O=[N+]([O-])c1cc2c(cc1O)[nH]c1cccc([N+](=O)[O-])c12 here?
Answer: Its TGI is greater than 100 µM.

Question: And the TGI [2]?
Answer: The TGI was greater than 100 µM.

Question: What about the TGI [9] of the same compound?
Answer: Its TGI is greater than 100 µM.

Question: And the TGI [5]?
Answer: Its TGI is greater than 100 µM.

Question: What about the TGI [7] of the same compound?
Answer: Its TGI is greater than 100 µM.

Question: What about the TGI [8] of the same compound?
Answer: The TGI was greater than 100 µM.

Question: How did the TGI [1] turn out when COc1cc2c(cc1OC)C(=O)Cc1ccc3c(c1CNCC2)OCO3 was run?
Answer: Its TGI is greater than 100 µM.

Question: And the TGI [2]?
Answer: The TGI was greater than 100 µM.

Question: What about the TGI [9] of the same compound?
Answer: Its TGI is greater than 100 µM.

Question: What about the TGI [3] of the same compound?
Answer: Its TGI is greater than 100 µM.

Question: And the TGI [4]?
Answer: Its TGI is greater than 100 µM.

Question: And the TGI [5]?
Answer: The TGI was greater than 100 µM.

Question: And the TGI [7]?
Answer: The TGI was greater than 100 µM.

Question: And the TGI [8]?
Answer: The TGI was greater than 100 µM.

Question: With COc1cc(C(C#N)NNC(=O)Cc2ccccc2)cc(OC)c1OC (stereo unspecified) as the compound, how does the TGI [1] read?
Answer: The TGI was greater than 100 µM.

Question: And the TGI [2]?
Answer: The TGI was greater than 100 µM.

Question: What about the TGI [9] of the same compound?
Answer: The TGI was greater than 100 µM.

Question: And the TGI [3]?
Answer: The TGI was greater than 100 µM.

Question: And the TGI [4]?
Answer: The TGI was greater than 100 µM.

Question: What about the TGI [5] of the same compound?
Answer: Its TGI is greater than 100 µM.

Question: What about the TGI [7] of the same compound?
Answer: Its TGI is greater than 100 µM.

Question: What does the source list for CC(C)[C@H]1CO[C@@H]2O[C@H](C)CC(=O)N21?
Answer: TGI [1]: > 100 µM; TGI [2]: > 100 µM; TGI [9]: > 100 µM; TGI [3]: > 100 µM; TGI [4]: > 100 µM; TGI [5]: > 100 µM
